Experimental data as given in ChEMBL document CHEMBL4507319 (2021).
pIC50: −log10 of the molar value.

Experiments:
[1] = target: 5'-AMP-activated protein kinase catalytic subunit alpha-1 (Homo sapiens, UniProt Q13131); assay: Cellular mechanistic pACC assay using Colo-320 cells; assay type: cell-based
[2] = target: Calcium/calmodulin-dependent protein kinase type 1G (Homo sapiens) (UniProt Q96NX5); conditions: Compound concentration 1000.0 nM
[3] = target: Serine/threonine-protein kinase MRCK gamma (Homo sapiens) (UniProt Q6DT37); conditions: Compound concentration 1000.0 nM
[4] = test system: Mast/stem cell growth factor receptor Kit (Homo sapiens), P10721 [A829P]; conditions: Compound concentration 1000.0 nM
[5] = test system: Tyrosine-protein kinase ABL1 (Homo sapiens), P00519 [Q252H]; conditions: Compound concentration 1000.0 nM
[6] = target: Eukaryotic translation initiation factor 2-alpha kinase 1 (Homo sapiens) (UniProt Q9BQI3); conditions: Compound concentration 1000.0 nM
[7] = target: Serine/threonine-protein kinase 25 (Homo sapiens) (UniProt O00506); conditions: Compound concentration 1000.0 nM
[8] = target: Mitogen-activated protein kinase kinase kinase 6 (Homo sapiens) (UniProt O95382); conditions: Compound concentration 1000.0 nM
[9] = target: Serine/threonine-protein kinase SIK2 (Homo sapiens) (UniProt Q9H0K1); conditions: Compound concentration 1000.0 nM
[10] = target: Ribosomal protein S6 kinase alpha-1 (Homo sapiens, UniProt Q15418); conditions: Compound concentration 1000.0 nM
[11] = target: Membrane-associated tyrosine- and threonine-specific cdc2-inhibitory kinase (Homo sapiens) (UniProt Q99640); conditions: Compound concentration 1000.0 nM
[12] = target: Mitogen-activated protein kinase 7 (Homo sapiens) (UniProt Q13164); conditions: Compound concentration 1000.0 nM
[13] = target: Vascular endothelial growth factor receptor 1 (Homo sapiens) (UniProt P17948); conditions: Compound concentration 1000.0 nM
[14] = target: Phosphatidylinositol 4,5-bisphosphate 3-kinase catalytic subunit delta isoform (Homo sapiens) (UniProt O00329); conditions: Compound concentration 1000.0 nM
[15] = target: T1, Muscle, skeletal receptor tyrosine-protein kinase (Homo sapiens) (UniProt O15146); conditions: Compound concentration 1000.0 nM
T1 sequence (whole entry): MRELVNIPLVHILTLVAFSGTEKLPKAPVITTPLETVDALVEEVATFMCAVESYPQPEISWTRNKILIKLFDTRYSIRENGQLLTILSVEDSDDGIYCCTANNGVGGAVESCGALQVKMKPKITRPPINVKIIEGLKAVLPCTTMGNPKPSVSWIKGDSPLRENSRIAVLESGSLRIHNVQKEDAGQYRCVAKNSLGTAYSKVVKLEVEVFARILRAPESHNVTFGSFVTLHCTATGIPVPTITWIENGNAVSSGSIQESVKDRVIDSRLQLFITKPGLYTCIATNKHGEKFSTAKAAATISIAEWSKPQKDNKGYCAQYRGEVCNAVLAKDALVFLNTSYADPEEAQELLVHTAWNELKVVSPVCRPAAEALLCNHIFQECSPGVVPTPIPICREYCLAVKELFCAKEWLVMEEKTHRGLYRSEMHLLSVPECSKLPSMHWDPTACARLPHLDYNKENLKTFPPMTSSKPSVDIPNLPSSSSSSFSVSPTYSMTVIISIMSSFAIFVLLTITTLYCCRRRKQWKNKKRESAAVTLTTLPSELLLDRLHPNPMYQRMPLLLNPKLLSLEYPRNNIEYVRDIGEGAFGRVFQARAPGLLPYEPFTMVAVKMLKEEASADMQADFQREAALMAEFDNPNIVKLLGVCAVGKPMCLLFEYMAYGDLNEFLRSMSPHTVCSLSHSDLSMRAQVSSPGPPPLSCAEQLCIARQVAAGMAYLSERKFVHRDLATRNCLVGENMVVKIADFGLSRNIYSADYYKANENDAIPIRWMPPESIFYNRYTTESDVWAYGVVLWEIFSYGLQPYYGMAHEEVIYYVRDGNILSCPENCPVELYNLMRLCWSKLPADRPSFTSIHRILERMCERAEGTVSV

[16] = target: Uncharacterized serine/threonine-protein kinase SBK3 (Homo sapiens) (UniProt P0C264); conditions: Compound concentration 1000.0 nM
[17] = target: Myosin-IIIa (Homo sapiens) (UniProt Q8NEV4); conditions: Compound concentration 1000.0 nM
[18] = target: Serine/threonine-protein kinase NIM1 (Homo sapiens) (UniProt Q8IY84); conditions: Compound concentration 1000.0 nM
[19] = target: Cyclin-dependent kinase 9 (Homo sapiens) (UniProt P50750); conditions: Compound concentration 1000.0 nM
[20] = target: Ephrin type-A receptor 4 (Homo sapiens) (UniProt P54764); conditions: Compound concentration 1000.0 nM
[21] = test system: Tyrosine-protein kinase ABL1 (Homo sapiens), P00519 [Q252H]; conditions: Compound concentration 1000.0 nM; remark: listed apart in the source
[22] = target: Homeodomain-interacting protein kinase 1 (Homo sapiens) (UniProt Q86Z02); conditions: Compound concentration 1000.0 nM
[23] = test system: Epidermal growth factor receptor (Homo sapiens), P00533 [UNDEFINED MUTATION]; conditions: Compound concentration 1000.0 nM
[24] = target: T2, Myotonin-protein kinase (Homo sapiens) (UniProt Q09013); conditions: Compound concentration 1000.0 nM
T2 sequence (whole entry): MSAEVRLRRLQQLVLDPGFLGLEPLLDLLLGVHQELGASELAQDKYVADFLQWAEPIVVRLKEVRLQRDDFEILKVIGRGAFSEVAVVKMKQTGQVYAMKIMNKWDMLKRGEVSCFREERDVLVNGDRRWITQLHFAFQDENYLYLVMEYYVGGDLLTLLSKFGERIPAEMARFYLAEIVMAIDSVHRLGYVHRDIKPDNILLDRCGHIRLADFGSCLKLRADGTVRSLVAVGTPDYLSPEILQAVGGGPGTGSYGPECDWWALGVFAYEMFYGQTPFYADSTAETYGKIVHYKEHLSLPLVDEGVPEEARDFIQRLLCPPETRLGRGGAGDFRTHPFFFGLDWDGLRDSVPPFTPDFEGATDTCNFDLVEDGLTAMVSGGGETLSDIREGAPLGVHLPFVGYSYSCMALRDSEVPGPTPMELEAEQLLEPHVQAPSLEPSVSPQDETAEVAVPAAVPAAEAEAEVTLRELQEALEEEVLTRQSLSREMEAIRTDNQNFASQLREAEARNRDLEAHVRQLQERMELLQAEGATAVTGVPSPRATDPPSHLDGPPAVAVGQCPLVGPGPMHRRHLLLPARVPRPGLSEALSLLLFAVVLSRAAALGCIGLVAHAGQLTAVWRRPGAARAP

Eukaryotic translation initiation factor 2-alpha kinase 1 (Homo sapiens), sequence (Q9BQI3 whole entry): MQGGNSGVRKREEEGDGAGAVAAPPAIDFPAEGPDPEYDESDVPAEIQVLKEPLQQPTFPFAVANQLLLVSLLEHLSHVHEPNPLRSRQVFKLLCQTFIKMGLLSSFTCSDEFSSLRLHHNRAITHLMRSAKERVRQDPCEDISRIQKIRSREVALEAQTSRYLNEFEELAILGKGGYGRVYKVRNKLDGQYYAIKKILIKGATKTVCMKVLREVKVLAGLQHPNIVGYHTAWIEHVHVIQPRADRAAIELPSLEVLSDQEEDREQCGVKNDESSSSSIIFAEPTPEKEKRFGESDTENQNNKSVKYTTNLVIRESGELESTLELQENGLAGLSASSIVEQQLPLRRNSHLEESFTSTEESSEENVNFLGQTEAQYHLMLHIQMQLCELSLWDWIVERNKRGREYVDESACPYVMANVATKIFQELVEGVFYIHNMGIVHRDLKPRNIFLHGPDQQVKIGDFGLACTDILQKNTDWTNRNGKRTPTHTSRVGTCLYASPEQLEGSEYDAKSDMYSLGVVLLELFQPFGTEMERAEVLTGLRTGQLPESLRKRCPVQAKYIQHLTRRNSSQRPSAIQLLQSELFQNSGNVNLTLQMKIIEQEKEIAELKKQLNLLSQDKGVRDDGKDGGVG
Membrane-associated tyrosine- and threonine-specific cdc2-inhibitory kinase (Homo sapiens), sequence (Q99640 whole entry): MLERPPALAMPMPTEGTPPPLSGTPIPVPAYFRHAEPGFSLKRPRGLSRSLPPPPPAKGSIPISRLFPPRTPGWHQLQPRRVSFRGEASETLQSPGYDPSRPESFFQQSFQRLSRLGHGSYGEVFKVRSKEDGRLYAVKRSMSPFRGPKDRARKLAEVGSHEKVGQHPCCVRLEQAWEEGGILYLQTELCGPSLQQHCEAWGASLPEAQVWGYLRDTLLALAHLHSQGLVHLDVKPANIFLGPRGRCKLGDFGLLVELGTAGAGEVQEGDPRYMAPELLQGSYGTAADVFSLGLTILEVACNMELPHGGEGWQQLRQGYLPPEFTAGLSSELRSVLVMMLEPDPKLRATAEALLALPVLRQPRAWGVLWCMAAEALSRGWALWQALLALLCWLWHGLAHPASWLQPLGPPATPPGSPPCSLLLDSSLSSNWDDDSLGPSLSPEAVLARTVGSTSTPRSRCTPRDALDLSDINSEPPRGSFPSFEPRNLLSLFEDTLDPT
Cyclin-dependent kinase 9 (Homo sapiens), sequence (P50750 whole entry): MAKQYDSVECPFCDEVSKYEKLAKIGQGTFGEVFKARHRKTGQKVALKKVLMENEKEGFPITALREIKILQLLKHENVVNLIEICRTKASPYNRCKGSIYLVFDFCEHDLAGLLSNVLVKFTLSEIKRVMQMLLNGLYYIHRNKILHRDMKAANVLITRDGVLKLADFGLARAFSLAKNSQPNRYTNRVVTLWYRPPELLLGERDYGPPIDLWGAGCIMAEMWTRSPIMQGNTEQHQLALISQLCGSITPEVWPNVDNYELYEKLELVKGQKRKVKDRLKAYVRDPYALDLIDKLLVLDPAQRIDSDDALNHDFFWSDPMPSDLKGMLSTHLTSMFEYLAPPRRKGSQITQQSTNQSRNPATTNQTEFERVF
Serine/threonine-protein kinase 25 (Homo sapiens), sequence (O00506 whole entry, looked up): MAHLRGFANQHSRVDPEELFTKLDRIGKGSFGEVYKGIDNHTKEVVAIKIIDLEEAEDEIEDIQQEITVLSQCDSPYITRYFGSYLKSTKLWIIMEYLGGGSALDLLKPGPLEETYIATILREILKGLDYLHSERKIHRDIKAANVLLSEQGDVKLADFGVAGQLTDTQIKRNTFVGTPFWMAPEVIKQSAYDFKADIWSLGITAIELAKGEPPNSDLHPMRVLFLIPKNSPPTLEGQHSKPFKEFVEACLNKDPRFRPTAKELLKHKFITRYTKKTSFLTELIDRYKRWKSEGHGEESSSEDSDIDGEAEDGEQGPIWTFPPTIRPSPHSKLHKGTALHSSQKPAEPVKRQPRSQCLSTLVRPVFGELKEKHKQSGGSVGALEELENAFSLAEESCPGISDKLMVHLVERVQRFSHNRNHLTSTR
Serine/threonine-protein kinase SIK2 (Homo sapiens), sequence (Q9H0K1 whole entry, looked up): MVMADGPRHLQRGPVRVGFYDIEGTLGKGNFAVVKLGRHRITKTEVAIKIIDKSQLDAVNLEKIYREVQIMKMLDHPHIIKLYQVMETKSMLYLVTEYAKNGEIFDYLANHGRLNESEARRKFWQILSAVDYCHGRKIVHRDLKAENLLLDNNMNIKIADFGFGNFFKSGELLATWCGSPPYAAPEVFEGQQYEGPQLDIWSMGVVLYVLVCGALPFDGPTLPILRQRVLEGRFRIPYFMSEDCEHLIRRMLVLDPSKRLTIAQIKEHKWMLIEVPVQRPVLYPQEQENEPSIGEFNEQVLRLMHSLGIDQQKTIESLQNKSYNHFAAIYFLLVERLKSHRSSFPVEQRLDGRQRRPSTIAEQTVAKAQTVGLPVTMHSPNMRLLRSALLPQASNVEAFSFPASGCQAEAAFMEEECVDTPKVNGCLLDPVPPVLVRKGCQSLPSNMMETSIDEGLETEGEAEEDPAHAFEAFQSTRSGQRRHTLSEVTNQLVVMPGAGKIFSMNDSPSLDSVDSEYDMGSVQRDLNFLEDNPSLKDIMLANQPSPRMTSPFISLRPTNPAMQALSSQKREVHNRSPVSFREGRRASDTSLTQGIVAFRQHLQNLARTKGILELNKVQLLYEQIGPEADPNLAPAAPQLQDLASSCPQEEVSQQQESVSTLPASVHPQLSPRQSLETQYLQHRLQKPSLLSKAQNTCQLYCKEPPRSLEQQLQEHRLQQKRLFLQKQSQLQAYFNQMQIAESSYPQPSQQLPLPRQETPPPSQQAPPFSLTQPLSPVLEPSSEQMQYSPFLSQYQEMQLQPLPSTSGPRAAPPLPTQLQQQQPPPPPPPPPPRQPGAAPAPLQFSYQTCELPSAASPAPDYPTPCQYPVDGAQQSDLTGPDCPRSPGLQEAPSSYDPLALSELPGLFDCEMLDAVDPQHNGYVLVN
Ribosomal protein S6 kinase alpha-1, sequence (Q15418 whole entry): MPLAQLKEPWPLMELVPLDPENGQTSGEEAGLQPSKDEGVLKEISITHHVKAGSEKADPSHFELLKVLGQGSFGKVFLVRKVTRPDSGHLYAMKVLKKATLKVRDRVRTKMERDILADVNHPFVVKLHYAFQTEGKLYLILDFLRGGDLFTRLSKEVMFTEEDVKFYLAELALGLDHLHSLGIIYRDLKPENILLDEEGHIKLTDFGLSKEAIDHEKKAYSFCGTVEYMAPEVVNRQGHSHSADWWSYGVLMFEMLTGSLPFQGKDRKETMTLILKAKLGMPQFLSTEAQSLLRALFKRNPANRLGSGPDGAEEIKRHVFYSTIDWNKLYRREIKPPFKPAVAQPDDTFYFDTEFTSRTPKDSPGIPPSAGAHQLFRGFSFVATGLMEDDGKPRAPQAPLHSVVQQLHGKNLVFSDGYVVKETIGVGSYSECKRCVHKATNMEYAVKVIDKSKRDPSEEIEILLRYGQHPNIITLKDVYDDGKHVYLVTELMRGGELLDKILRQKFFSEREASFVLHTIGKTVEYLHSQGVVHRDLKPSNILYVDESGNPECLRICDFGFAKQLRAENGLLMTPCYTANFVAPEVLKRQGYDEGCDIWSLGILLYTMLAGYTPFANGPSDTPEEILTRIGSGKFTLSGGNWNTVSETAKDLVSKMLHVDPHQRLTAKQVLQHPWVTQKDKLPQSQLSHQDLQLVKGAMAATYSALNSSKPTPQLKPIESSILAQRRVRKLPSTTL
Calcium/calmodulin-dependent protein kinase type 1G (Homo sapiens), sequence (Q96NX5 whole entry): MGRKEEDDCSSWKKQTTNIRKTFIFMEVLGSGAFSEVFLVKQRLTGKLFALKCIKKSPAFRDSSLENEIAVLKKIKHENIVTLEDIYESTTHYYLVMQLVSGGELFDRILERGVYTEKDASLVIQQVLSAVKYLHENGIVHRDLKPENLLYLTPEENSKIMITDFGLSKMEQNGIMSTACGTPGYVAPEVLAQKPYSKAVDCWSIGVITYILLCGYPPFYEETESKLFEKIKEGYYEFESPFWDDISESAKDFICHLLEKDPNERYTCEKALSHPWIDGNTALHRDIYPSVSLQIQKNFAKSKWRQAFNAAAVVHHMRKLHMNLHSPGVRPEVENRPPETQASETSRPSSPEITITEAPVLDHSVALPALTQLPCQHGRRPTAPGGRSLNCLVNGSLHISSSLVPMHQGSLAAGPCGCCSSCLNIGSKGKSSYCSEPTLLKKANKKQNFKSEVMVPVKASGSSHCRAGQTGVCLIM
Mitogen-activated protein kinase 7 (Homo sapiens), sequence (Q13164 2-816 limits assumed): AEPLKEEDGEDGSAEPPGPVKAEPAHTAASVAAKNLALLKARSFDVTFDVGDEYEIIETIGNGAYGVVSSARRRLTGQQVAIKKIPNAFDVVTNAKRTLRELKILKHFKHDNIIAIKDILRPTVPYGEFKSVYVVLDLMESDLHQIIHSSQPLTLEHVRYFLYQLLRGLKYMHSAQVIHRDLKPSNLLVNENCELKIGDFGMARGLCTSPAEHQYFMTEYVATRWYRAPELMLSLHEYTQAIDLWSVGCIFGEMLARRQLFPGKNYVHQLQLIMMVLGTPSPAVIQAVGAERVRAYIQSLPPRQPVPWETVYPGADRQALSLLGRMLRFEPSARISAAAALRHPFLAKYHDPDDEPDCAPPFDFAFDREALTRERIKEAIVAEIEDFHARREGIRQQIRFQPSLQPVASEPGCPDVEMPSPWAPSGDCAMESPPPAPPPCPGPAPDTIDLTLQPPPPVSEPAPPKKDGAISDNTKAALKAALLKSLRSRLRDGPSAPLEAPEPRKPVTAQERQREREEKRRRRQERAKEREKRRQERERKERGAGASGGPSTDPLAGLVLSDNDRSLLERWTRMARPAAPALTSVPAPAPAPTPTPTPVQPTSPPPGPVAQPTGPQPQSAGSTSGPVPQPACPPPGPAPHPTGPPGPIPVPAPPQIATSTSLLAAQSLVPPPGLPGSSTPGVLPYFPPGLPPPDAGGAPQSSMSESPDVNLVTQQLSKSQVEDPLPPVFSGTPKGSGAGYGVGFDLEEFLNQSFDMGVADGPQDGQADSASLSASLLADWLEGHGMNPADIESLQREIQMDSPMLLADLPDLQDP

Row | SMILES | IC50 [1] | residual activity [2] | residual activity [3] | residual activity [4] | residual activity [5] | residual activity [6] | residual activity [7] | residual activity [8] | residual activity [9] | residual activity [10] | residual activity [11] | residual activity [12] | residual activity [13] | residual activity [14] | residual activity [15] | residual activity [16] | residual activity [17] | residual activity [18] | residual activity [19] | residual activity [20] | pIC50 [1] | also measured
1 | CC1=C(C#N)C(c2ccc3c(c2)c(NC(=O)c2ccccc2C)nn3C)C(C#N)=C(C)N1 [BAY-974] | > 30000 nM (not active) | 99% | 92% | 64% | 73% | 100% | 100% | 71% | 93% | 100% | 99% | 100% | 100% | 71% | 98% | 100% | 86% | 86% | 100% | 93% | – | residual activity [21]: 100%; residual activity [22]: 71%; residual activity [23]: 78%; residual activity [24]: 99%
2 | CCc1ccccc1C(=O)Nc1n[nH]c2c(C)c(F)c(C3C(C#N)=C(C)N(C)C(C)=C3C#N)cc12 [BAY-3827] | – | 90% | 93% | 100% | 99% | 100% | 80% | 100% | 69% | 100% | 100% | 86% | 72% | 90% | 83% | 73% | 68% | 100% | 94% | 100% | 6.41 | residual activity [21]: 82%; residual activity [22]: 99%; residual activity [23]: 29%; residual activity [24]: 100%
